Data from patent US20190100498A1, “CRYSTALLINE FORM” (AstraZeneca AB, priority 2016, published 2019).

Assay: accelerated degradation studies (chemical stability, purity by HPLC)
Format: physicochemical
Text: Crystalline particles of Form S of the compound of formula (I) were obtained using the methods described in Example 5 above. Crystalline particles of Form A were also obtained, using the ethyl acetate-heptane crystallization system described in WO2010/071583. Samples of Form A and Form S were subject to accelerated degradation studies. Samples of each crystalline form were stored at varying combinations of temperature and relative humidity and analysed for purity by HPLC at 0, 14 and 28 days.

[1] = 60 °C, 30% relative humidity, Day 0
[2] = 60 °C, 30% relative humidity, Day 14
[3] = 60 °C, 30% relative humidity, Day 28
[4] = 60 °C, 75% relative humidity, Day 0
[5] = 60 °C, 75% relative humidity, Day 14
[6] = 60 °C, 75% relative humidity, Day 28
[7] = 70 °C, 11% relative humidity, Day 0
[8] = 70 °C, 11% relative humidity, Day 14
[9] = 70 °C, 11% relative humidity, Day 28
[10] = 70 °C, 75% relative humidity, Day 0
[11] = 70 °C, 75% relative humidity, Day 14
[12] = 70 °C, 75% relative humidity, Day 28
[13] = 80 °C, 30% relative humidity, Day 0
[14] = 80 °C, 30% relative humidity, Day 14
[15] = 80 °C, 30% relative humidity, Day 28

Purity by HPLC [1] [%] | Purity by HPLC [2] [%] | Purity by HPLC [3] [%] | Purity by HPLC [4] [%] | Purity by HPLC [5] [%] | Purity by HPLC [6] [%] | Purity by HPLC [7] [%] | Purity by HPLC [8] [%] | Purity by HPLC [9] [%] | Purity by HPLC [10] [%] | Purity by HPLC [11] [%] | Purity by HPLC [12] [%] | Purity by HPLC [13] [%] | Purity by HPLC [14] [%] | Purity by HPLC [15] [%] | Structure (SMILES) | degradation in accelerated degradation studies (under all the conditions that the samples were exposed to, Form S compared with Form A)
99.77 | 99.77 | 99.77 | 99.77 | 99.64 | 99.63 | 99.77 | 99.77 | 99.77 | 99.77 | 99.77 | 99.77 | 99.77 | 99.77 | 99.78 | CNCCOc1ccccc1C1(Nc2nccn(-c3cc(C(=O)NC4CC4)cc(F)c3C)c2=O)CC1 [Form S, N-cyclopropyl-3-fluoro-4-methyl-5-[3-[[1-[2-[2-(methylamino)ethoxy]phenyl]cyclopropyl]amino]-2-oxo-pyrazin-1-yl]benzamide] | significantly less degradation than Form A
99.43 | 99.41 | 99.39 | 99.43 | 99.20 | 99.21 | 99.43 | 99.33 | 99.33 | 99.43 | 98.78 | 98.76 | 99.43 | 99.40 | 99.36 | CNCCOc1ccccc1C1(Nc2nccn(-c3cc(C(=O)NC4CC4)cc(F)c3C)c2=O)CC1 [Form A, N-cyclopropyl-3-fluoro-4-methyl-5-[3-[[1-[2-[2-(methylamino)ethoxy]phenyl]cyclopropyl]amino]-2-oxo-pyrazin-1-yl]benzamide, reference compound] | 
